Patent publication US8895501B2, “Eye-drop vaccine containing copolymer 1 for therapeutic immunization” (Yeda Research and Development Co. Ltd., priority 2003, dated 2014)
Several values for one entry are separate records, joined by “and”; a condition that tells them apart may be missing. Equal entries are not always repeated.

Experiments:
[1] = test system: retinal ganglion cells (RGCs); test: Chronic high IOP model (laser-induced), IOP-induced RGC death; format: in vivo, rat; conditions: for % of death of RGCs: non-thymectomized rats; for % of death of RGCs / loss of RGCs (% death): treatment started immediately after IOP elevation (Cop-1 single injection, brimonidine daily), 3 weeks; for loss of RGCs (% death): thymectomized (T cell-deprived) rats
Text: (§1) Inbred adult male Lewis and Sprague-Dawley (SPD) rats (8 weeks; average weight 300 g) were supplied by the Animal Breeding Center at The Weizmann Institute of Science (Rehovot, Israel). The rats were maintained in a light- and temperature-controlled room and were matched for age and weight before each experiment. All animals were handled according to the regulations formulated by IACUC ([…]).
Blockage of aqueous outflow causes an increase in IOP, which results in RGC death (Bakalash et al., 2002; Schori et al., 2001; Jia et al., 2000a; Levkovitch-Verbin et al., 2002). […] Rats were deeply anesthetized by intramuscular injection of ketamine hydrochloride (50 mg/kg) and xylazine hydrochloride (0.5 mg/kg). A slit lamp emitting blue-green argon laser irradiation (Haag-Streit, Köniz, Switzerland) was used to treat the right eye of the anesthetized rat with 80 to 120 applications directed toward three of the four episcleral veins and toward 270° of the limbal plexus. The laser beam was applied with a power of 1 W for 0.2 seconds, producing a spot size of 100 μm at the episcleral veins and 50 μm at the limbal plexus. At a second laser session 1 week later, the same parameters were used, except that the spot size was 100 μm in all applications. Irradiation was directed toward all four episcleral veins and 360° of the limbal plexus (Schori et al. 2001).
(§2) Eyes from untreated rats were used as a control. RGCs were counted by an observer who was blinded to the identity of the retinas.
Rats with either laser-induced increase in IOP or acute IOP elevation were immunized with Cop 1 (100 μg) (Teva Pharmaceutical Industries Ltd., Petach Tikva, Israel) emulsified in 2.5 mg/ml of CFA in a total volume of 100 μl (Kipnis et al., 2000). Each animal was vaccinated subcutaneously at the root of the tail.
(§3) Cop-1 in PBS was given at different concentrations and at different time points after the primary insult subcutaneously. Topical administration of Cop-1 was done after immersing the substance in PBS at a concentration of 20 mg/ml. Since each drop was of 50 μl, we administered 1 drop every 5 minutes for a total of 5 drops in 25 minutes.

[2] = test system: retinal ganglion cells (RGCs); test: Acute transient high IOP model, IOP-induced RGC death; format: in vivo, Lewis rats
Text: as §1
The infusion bag was placed 1 meter above the rat's head, creating a closed loop circulation. High IOP was induced for exactly 1 hour after which the needle was removed from the eye and the hole was self-sealed.
as §2, §3

Molecule	% of RGC death ([1]; Cop-1 emulsified in CFA, day of first laser plus 2, 6 and 9 weeks later, retinas excised 12 weeks after first laser, n=5)	% of RGC death ([1]; Cop-1 emulsified in CFA, immunized on day of first laser, retinas excised 3 weeks later, n=7)	% of RGC death ([1]; adjuvant-free 500 μg, daily injections for 7 days starting on day 0, retinas excised 3 weeks later)	% of RGC death ([1]; adjuvant-free 500 μg, single injection on day 7 after first laser, retinas excised 3 weeks later)	% of RGC death ([1]; adjuvant-free, subcutaneous, 100 μg on first day of laser treatment)	% of RGC death ([1]; adjuvant-free, subcutaneous, 250 μg on first day of laser treatment)	% of RGC death ([1]; adjuvant-free, subcutaneous, 500 μg on first day of laser treatment)	RGC protection 6 weeks after IOP was first elevated, comparison of regimens ([1]; adjuvant-free, two injections (day 0 and 3 weeks later) versus a single injection after 3 weeks)	number of RGCs ([1]; eye drops without adjuvant, 5 mg Cop-1, assessed 3 weeks after pressure elevation, p<10^-5)	% of death of RGCs [1]	loss of RGCs (% death) [1]	Average death rate of RGCs ([2]; 5 mg Cop-1 over 25 minutes immediately after 1 hour of elevated IOP, two weeks after IOP elevation, n=4)	RGC protection, eye drops applied to the eye contralateral to the elevated pressure ([2]; Cop-1 eye drops to contralateral side versus ipsilateral)	loss of RGCs ([2]; Cop-1 without adjuvant, 2 weeks after transient IOP elevation (1 hour))
glatiramer acetate [Cop-1]	33.7±1.4%	12.6±5%	41.41±6%	19.1±14.7%	44±6%	50.5±8%	26.6±10%	more effective than a single injection after 3 weeks	150 RGCs	23.5±5.7%	55±5.2% and 55%	31.12%±3.22	same effect as when given ipsilaterally	20%
Brc1c(NC2=NCCN2)ccc2nccnc12 [brimonidine]										34.5±3.51%	38±7%			
